Data taken from US7276528B2, “Compounds for the inhibition of nitric oxide synthase” (AstraZeneca AB, priority 2001, dated 2007).
Counter-ions that a name gives are not always drawn.

What was measured:
Type in all cases: biochemical
Settings in all cases: recombinant human enzyme expressed in E. coli; 60 min pre-incubation with NADPH; 3 μM [3H]arginine
Recombinant human nNOS = target: T1, Recombinant human nNOS (Homo sapiens, UniProt P29475); assay: Screen 2: recombinant human NO synthase inhibition, L-[3H]citrulline formation (nNOS)
T1 construct: made in house; host or cells: E. coli (lysate)
Description: (§1) Recombinant human NO synthases (iNOS, eNOS & nNOS) were expressed in E. coli and lysates were prepared in Hepes buffer (pH 7.4) containing co-factors (FAD, FMN, H4B), protease inhibitors, lysozyme and the detergent, CHAPS. These preparations were used, at suitable dilution, to assess inhibition of the various isoforms. Inhibition of NOS was determined by measuring the formation of L-[^3H]citrulline from L-[^3H]arginine using an adaptation of the method of Förstermann et al. Enzyme assays were performed in the presence of 3 μM [^3H]arginine, 1 mM NADPH and other co-factors required to support NOS activity (FAD, FMN, H4B, calmodulin, Ca^2+). […] Incubations continued for a further 60 min before the assays were quenched and [^3H]citrulline separated from unreacted substrate by chromatography on Dowex-50 W resin in a 96-well format.

Recombinant human eNOS = target: T2, Recombinant human eNOS (Homo sapiens, UniProt P29474); assay: Screen 2: recombinant human NO synthase inhibition, L-[3H]citrulline formation (eNOS)
T2 construct: made in house; host or cells: E. coli (lysate)

Recombinant human iNOS = target: T3, Recombinant human iNOS (Homo sapiens, UniProt P35228); assay: Screen 2: recombinant human NO synthase inhibition, L-[3H]citrulline formation (iNOS)
T3 construct: made in house; host or cells: E. coli (lysate)
Description: as §1

T2 sequence (P29474 whole entry): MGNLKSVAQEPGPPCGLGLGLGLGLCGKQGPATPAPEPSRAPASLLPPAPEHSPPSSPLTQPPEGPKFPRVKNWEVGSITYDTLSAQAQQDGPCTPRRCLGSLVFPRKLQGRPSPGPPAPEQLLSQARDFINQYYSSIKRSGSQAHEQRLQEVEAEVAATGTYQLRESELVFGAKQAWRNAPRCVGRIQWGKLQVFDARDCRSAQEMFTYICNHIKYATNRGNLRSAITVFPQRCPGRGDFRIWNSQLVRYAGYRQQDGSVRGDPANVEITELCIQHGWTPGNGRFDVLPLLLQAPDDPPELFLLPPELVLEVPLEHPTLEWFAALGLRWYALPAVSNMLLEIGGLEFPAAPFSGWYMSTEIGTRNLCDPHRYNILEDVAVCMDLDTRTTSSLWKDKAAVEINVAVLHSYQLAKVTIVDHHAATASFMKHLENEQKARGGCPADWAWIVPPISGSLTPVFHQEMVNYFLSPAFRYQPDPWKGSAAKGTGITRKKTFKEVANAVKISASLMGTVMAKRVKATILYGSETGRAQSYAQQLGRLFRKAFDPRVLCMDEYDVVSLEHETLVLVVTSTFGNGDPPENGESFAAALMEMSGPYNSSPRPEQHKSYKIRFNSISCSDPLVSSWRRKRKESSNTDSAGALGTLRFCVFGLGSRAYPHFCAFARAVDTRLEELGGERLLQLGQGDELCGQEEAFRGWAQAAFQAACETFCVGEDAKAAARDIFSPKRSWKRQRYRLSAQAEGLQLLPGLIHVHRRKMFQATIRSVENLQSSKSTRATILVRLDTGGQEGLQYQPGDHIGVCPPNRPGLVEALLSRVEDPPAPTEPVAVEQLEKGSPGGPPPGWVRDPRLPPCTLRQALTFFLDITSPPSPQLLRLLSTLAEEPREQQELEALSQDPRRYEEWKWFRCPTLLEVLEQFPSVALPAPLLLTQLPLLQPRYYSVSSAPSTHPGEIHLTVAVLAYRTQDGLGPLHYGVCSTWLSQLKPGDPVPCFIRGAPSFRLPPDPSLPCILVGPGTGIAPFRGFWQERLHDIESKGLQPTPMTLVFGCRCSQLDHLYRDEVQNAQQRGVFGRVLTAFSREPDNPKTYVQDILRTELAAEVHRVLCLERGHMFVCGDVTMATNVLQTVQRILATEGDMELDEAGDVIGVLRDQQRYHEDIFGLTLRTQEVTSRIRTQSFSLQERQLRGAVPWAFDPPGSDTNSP
T3 sequence (P35228 whole entry): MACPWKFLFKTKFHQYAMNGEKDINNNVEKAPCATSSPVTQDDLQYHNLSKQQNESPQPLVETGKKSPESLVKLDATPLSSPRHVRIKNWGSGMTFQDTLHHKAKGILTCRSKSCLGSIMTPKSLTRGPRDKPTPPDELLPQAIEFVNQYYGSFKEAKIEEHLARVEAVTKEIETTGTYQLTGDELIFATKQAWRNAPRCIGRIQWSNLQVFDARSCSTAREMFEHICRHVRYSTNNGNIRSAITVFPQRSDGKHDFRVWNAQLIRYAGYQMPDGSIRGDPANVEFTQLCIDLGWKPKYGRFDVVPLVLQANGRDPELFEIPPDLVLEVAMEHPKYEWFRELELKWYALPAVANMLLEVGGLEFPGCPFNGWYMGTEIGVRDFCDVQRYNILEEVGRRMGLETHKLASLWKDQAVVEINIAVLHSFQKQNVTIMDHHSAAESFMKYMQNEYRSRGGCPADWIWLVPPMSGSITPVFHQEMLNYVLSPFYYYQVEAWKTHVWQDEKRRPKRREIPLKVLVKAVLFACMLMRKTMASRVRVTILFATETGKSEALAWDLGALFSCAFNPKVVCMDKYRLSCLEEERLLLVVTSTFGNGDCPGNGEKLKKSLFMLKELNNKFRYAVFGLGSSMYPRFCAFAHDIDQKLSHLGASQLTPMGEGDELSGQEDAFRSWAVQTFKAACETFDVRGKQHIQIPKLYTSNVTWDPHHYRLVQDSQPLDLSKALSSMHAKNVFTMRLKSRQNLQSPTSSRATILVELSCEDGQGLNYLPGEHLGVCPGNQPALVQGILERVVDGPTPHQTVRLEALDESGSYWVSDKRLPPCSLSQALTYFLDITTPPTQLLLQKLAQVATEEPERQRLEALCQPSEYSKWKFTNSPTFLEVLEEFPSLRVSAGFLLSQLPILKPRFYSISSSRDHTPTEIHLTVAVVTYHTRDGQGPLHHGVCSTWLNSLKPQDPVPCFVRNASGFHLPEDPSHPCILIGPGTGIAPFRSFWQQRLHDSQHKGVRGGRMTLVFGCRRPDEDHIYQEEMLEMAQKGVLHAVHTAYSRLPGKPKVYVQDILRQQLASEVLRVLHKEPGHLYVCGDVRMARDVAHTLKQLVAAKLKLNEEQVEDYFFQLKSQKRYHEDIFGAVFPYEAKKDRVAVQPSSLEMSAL
T1 sequence (P29475 whole entry): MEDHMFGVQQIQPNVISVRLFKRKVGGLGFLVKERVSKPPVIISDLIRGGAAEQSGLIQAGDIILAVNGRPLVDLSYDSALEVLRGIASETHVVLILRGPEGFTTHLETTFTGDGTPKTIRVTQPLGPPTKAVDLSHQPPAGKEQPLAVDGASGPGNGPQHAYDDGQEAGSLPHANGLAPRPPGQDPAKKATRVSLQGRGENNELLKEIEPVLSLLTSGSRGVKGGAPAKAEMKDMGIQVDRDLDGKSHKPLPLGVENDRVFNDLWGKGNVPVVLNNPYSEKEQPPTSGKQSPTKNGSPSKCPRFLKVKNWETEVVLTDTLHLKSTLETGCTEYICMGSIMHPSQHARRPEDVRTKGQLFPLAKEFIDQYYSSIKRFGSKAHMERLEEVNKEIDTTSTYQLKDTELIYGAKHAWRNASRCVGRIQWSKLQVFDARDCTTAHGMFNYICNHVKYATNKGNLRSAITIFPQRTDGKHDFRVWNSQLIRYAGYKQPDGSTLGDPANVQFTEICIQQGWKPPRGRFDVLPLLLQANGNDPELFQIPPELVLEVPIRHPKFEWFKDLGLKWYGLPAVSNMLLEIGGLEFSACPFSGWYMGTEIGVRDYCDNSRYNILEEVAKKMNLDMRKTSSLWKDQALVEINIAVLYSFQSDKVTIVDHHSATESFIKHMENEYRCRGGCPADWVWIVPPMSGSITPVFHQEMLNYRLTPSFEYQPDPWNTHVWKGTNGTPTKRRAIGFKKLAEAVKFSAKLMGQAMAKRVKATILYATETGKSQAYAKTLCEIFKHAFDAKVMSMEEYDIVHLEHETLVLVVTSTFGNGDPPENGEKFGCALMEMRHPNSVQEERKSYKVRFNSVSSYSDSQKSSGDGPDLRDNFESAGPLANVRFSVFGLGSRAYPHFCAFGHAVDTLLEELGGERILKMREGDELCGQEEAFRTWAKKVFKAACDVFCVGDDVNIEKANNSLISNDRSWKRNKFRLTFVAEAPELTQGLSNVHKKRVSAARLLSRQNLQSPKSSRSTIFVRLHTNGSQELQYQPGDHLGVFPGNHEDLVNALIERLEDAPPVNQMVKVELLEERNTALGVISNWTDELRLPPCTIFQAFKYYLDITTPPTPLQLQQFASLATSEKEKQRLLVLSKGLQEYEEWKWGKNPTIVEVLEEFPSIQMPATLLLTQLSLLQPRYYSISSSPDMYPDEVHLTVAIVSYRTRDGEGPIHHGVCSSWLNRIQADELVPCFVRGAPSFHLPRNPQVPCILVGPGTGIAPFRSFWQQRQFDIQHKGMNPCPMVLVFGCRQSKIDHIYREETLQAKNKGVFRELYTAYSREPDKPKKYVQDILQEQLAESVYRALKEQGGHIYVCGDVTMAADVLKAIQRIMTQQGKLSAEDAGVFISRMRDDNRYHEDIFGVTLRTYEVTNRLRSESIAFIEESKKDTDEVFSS

IC50 (Recombinant human nNOS)	IC50 (Recombinant human eNOS)	IC50 (Recombinant human iNOS)	SMILES
0.0048 µM	0.34 µM	0.0029 µM	CNCc1cccc(Oc2cc(Cl)ccc2C#N)c1 [Example 10, 4-Chloro-2-(3-methylaminomethyl-phenoxy)-benzonitrile fumarate]
0.039 µM	5.4 µM	0.16 µM	CNCc1ccc(Oc2cc(Cl)ccc2C#N)c2ccccc12 [Example 24, 4-Chloro-2-[4-(methylaminomethyl)naphthalen-1-yloxy]benzonitrile fumarate]
0.2 µM	44 µM	0.09 µM	CN(C)Cc1cccc(Oc2cc(Cl)ccc2C#N)c1 [Example 25, 4-Chloro-2-[3-(dimethylaminomethyl)phenoxy]benzonitrile fumarate]
